Broadly, the IC50 is the concentration that inhibits the measured activity by half.

The structures appear in SMILES notation.

1 molecule from patent US20120136003A1, “COMPOUNDS, COMPOSITIONS AND METHODS COMPRISING 1,3,4-OXADIAZOLE DERIVATIVES” (Institute For Oneworld Health, priority 2009, published 2012) can be followed below.

In experiment [1] the target is T1, CFTR (Homo sapiens, UniProt P13569). The experiment is described as follows: CHO-CFTR IonWorks Quattro (IWQ) population patch clamp. It is filed as cell-based. Further details: expressed in transfected cells; host or cells: CHO-K1 cells, stably transfected. The settings on record: @-60 mV; room temperature. As for the experimental part: Currents were recorded at room temperature (21-23° C.) using IonWorks® Quattro™ (Molecular Devices, Inc) Population Patch Clamp (PPC) mode automated electrophysiology recording techniques.
Before recording commenced, a T175 culture flask containing CHO-K^1 cells stably transfected with the CFTR gene were washed with 10 ml of Dulbecco's phosphate buffered saline (without Ca^2+ or Mg^2+) followed by addition of 1 ml of 0.05% Trypsin EDTA (Invitrogen, cat no. 25300054) to the flask. After 1-2 minutes incubation, flasks were gently tapped to lift the cells from the substrate and 10 ml of complete media added. Cells were spun at 1,000 rpm for 3 minutes, followed by re-suspension of the pellet in external buffer and use of the resulting cell suspension at a density of 2×10^6 cells per ml. The external solution used for recording was Dulbecco's phosphate buffered saline (Invitrogen, cat no. 14040091) and contained (in mM) 137.9 NaCl, 2.7 KCl, 0.901 CaCl2, 0.5 MgCl2.6H2O, 1.5 KH2PO4, 8.1 Na2HPO4.7H2O. The internal solution contained the following (in mM): 10 NaCl (Sigma, cat no. S7653), 90 KGluconate (Sigma, cat no. G4500), 30 KF (Sigma, cat no. 60238), 1 MgCl2 (Fluka, cat no. 63020), 5 EGTA (Sigma, cat no. E3889), 10 HEPES (Sigma, cat no. H3375); pH 7.4 with KOH. […]
Target sequence in this assay (P13569 whole entry, species assumed): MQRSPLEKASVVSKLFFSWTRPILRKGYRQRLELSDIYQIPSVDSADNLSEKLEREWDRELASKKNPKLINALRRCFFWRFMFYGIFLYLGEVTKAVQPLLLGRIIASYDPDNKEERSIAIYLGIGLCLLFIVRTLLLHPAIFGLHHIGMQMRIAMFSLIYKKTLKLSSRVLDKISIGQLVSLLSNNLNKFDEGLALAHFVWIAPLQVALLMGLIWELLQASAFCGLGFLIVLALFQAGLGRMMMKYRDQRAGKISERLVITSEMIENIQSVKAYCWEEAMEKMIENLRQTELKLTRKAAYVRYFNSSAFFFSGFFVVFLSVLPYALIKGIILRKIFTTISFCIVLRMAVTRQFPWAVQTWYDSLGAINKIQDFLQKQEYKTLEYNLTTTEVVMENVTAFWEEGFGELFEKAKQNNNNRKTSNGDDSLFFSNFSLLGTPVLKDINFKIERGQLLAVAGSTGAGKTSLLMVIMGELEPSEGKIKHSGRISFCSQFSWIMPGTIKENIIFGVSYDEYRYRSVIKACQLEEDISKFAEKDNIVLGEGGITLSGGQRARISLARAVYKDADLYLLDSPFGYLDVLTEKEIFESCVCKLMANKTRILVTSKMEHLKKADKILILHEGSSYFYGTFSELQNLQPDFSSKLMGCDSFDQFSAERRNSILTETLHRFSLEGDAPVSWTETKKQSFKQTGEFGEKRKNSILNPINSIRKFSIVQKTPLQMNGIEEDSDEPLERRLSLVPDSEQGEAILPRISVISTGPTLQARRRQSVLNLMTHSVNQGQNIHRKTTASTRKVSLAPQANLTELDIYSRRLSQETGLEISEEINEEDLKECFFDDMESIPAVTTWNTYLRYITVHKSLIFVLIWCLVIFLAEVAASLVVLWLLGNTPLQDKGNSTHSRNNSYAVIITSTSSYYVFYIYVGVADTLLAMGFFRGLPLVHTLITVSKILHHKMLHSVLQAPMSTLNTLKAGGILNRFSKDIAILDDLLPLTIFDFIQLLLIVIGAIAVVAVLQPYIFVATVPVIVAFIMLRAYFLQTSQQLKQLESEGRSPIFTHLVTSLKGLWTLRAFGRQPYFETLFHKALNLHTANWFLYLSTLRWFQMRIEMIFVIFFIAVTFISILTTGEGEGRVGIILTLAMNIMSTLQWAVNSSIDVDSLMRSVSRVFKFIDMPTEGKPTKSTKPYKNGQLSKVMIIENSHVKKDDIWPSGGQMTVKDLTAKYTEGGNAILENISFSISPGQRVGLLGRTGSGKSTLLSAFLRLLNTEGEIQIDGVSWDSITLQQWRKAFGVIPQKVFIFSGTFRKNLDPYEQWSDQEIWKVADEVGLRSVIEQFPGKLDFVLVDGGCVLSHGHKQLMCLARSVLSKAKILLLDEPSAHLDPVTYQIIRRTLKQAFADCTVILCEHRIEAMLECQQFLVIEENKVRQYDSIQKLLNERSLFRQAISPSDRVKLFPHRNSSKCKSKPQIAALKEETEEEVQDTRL

The target in experiment [2] is T1, CFTR. The experiment is described as follows: T84 assay (FLIPR membrane potential). It is filed as cell-based. Further details: Human colonic T84 cells are acquired from the European Collection of Cell Cultures (ECACC); host or cells: T84 human colonic cells. As for the experimental part:
(§1) For example, Human colonic T84 cells can be acquired from the European Collection of Cell Cultures (ECACC) and grown in standard culture conditions as described by the supplier. On the day before assay 25,000 T84 cells per well are plated into standard black walled, clear bottom 384-well assay plates in standard growth medium consisting of DMEM:F12 with 10% FBS and incubated overnight. On the day of the assay the plates are washed using a standard assay buffer (HBSS with 10 mM Hepes) and incubated for 15 minutes in serum free cell culture medium before the addition of a commercially available membrane potential sensitive fluorescent dye (FLIPR Red membrane potential dye, Molecular Devices Corporation). T84 cells are incubated with the FLIPR Red membrane potential dye for 45 minutes in the presence and absence of test compound before being transferred to a commercially available fluorescence imaging plate reader (FLIPR384, Molecular Devices Corporation). Fluorescence levels are monitored continuously every second for 150 seconds; after an initial 10 second baseline, CFTR channel activity is stimulated through the addition of 10 μM forskolin in the presence of 100 μM of the phosphodiesterase inhibitor iso-butyl-methylxanthine (IBMX). Addition of the forskolin leads to the activation of intracellular adenylyl cylase 1, elevating cAMP levels and results in the phosphorylation and opening of CFTR anion channels. CFTR channel opening causes chloride ion efflux and subsequent depolarization of the cells, which is measured by an increase in fluorescence. CFTR inhibitor compounds prevent cell depolarization and the associated increase in fluorescence.
as §1, with “Human colonic” for “For example, Human colonic”, “T84 cells are acquired from” for “T84 cells can be acquired from”, “(ECACC) and are grown in” for “(ECACC) and grown in”, “with 10 Mm Hepes) and” for “with 10 mM Hepes) and”, “1, elevating Camp levels and” for “1, elevating cAMP levels and”
Target sequence in this assay (P13569 whole entry): as the sequence (P13569 whole entry, species assumed) above

In experiment [3] the target is T1, CFTR. The experiment is described as follows: CHO-CFTR assay (FLIPR assay). It is filed as cell-based. Also noted: expressed in transfected cells; host or cells: CHO-K1 cells, stably transfected. The settings on record: same assay conditions (FLIPR assay); read-out: IC50 value in the CHO-CFTR cell line.
Target sequence in this assay (P13569 whole entry, species assumed): as above
Experiment [4] relates to mice (CD1 strain), intestinal loops with cholera toxin (CTX). Particulars: mouse, in vivo.

With `O=C(c1nnc(-c2cc(Cl)c(O)c(Cl)c2)o1)N1CCN(c2cccc(C(F)(F)F)c2)CC1` [Compound 4, (5-(3,5-dichloro-4-hydroxyphenyl)-1,3,4-oxadiazol-2-yl)(4-(3-(trifluoromethyl)phenyl)piperazin-1-yl)methanone], the half-inhibitory concentration (IC50) came out at 4.71 µM in experiment [1], 16.9 µM in experiment [2] and 10.6 µM in experiment [3]. In experiment [4], the “closed loop % inhibition” value was 92.5%.
